The subject of one data set is MDA-MB-435. The data set is described as follows: Anticancer activity against human MDA-MB-435 cells assessed as cell growth inhibition. It counts as functional.
The test system of another data set is UACC-62. The data set is described as follows: Anticancer activity against human UACC-62 cells assessed as cell growth inhibition. Format: functional.
A further data set deals with MV4-11. In words: Anticancer activity against human MV4-11 cells assessed as cell growth inhibition. Particulars: read-out: LD50 (the source's name). Format: functional.
In the next data set the test system is SF-295. The data set is described as follows: Anticancer activity against human SF-295 cells assessed as cell growth inhibition. Format: functional.
Data set [1] deals with SK-OV-3. The data set is described as follows: Anticancer activity against human SK-OV-3 assessed as cell growth inhibition incubated for 72 hrs by MTT assay. It counts as functional, cell-based. Particulars: SK-OV-3, 72 h.
Data set [2] relates to MCF7. The data set is described as follows: Anticancer activity against human MCF7 cells assessed as cell growth inhibition incubated for 48 hrs by MTS assay. Format: functional, cell-based. As to conditions: MCF7, 48 h. On the technique in general: Formazan colour is commonly taken as a measure of viable cells.
Data set [3] is described as follows: Cytotoxicity activity against human CCD-1059Sk cells assessed as cell growth inhibition incubated for 48 hrs by MTS assay. Format: toxicity, cell-based.
The subject of data set [4] is MCF7. The data set is described as follows: Anticancer activity against human MCF7 cells assessed as cell growth inhibition incubated for 48 hrs in presence of resveratrol by MTS assay. Format: functional, cell-based. Particulars: MCF7, 48 h.
The nature of data set [5]: Cytotoxicity activity against human CCD-1059Sk cells assessed as cell growth inhibition incubated for 48 hrs in presence of resveratrol by MTS assay. It counts as toxicity, cell-based.
Data set [6] can be described thus: in vitro. Particulars: human, CCD-1059Sk cells and MCF7 cells.
Description: Selectivity index, ratio of IC50 for cytotoxicity against CCD-1059Sk cells to IC50 for antiproliferative activity against MCF7 cells
Data set [7] is described as follows: in vitro. Particulars: human, CCD-1059Sk cells and MCF7 cells. The source holds these as a separate data set.
Description: Selectivity index, ratio of IC50 for cytotoxicity against CCD-1059Sk cells to IC50 for antiproliferative activity against MCF7 cells in presence of resveratrol
Data set [8] deals with B16-F10. The data set is described as follows: Anti cancer activity against mouse B16-F10 cells assessed as cell growth inhibition incubated for 40 hrs by Almar Blue stained fluorescence-based assay. As to conditions: B16-F10, 40 h. Format: functional.
Data set [9] deals with B16-F10. The data set is described as follows: Anti cancer activity against mouse B16-F10 cells assessed as cell growth inhibition incubated for 40 hrs by Almar Blue stained fluorescence-based assay relative to control. Format: functional.
For data set [10], the system named is MCF7. The data set is described as follows: Anticancer activity against human MCF7 cells assessed as cell viability at 10 uM measured after 7 days relative to control. It counts as functional. As to conditions: MCF7, 168 h, time 7 day, read-out: Activity.
A further data set concerns ZR-75-1. In words: Anticancer activity against human ZR-75-1 cells assessed as cell viability at 10 uM measured after 7 days relative to control. Format: functional. Particulars: ZR-75-1, 168 h, time 7 day, read-out: Activity.
For another data set, the system named is BT-549. The data set is described as follows: Anticancer activity against human BT-549 cells assessed as cell viability at 10 uM measured after 7 days relative to control. As to conditions: BT-549, 168 h, time 7 day, read-out: Activity. Format: functional.
A further data set deals with MDA-MB-157. The data set is described as follows: Anticancer activity against human MDA-MB-157 cells assessed as cell viability at 10 uM measured after 7 days relative to control. Format: functional. Particulars: MDA-MB-157, 168 h, time 7 day, read-out: Activity.
Data set [11] deals with MDA-MB-231. In words: Anticancer activity against human MDA-MB-231 cells assessed as cell viability at 10 uM measured after 7 days relative to control. Format: functional. Particulars: MDA-MB-231, 168 h, time 7 day, read-out: Activity.
The next data set deals with HT-29. In words: cells. As to conditions: Homo sapiens, HT-29, 48 h.
In a further data set the test system is Caco-2. The data set is described as follows: cells. Particulars: Homo sapiens, Caco-2, 48 h.
The test system of data set [12] is HepG2. The data set is described as follows: cells. Particulars: Homo sapiens, HepG2, 48 h.
Description: Anti cancer activity against human HepG2 cell assessed as cell growth inhibition incubated for 48 hrs by Brdu assay
Data set [13] has as its system Panel NCI-60 (60 carcinoma cell lines). The data set is described as follows: Growth inhibition of human Panel NCI-60 (60 carcinoma cell lines). It counts as functional.
Data set [14] deals with A2780. In words: Anticancer activity against human A2780 cells assessed as cell growth inhibition incubated for 24 hrs […] by MTT assay. It counts as functional, cell-based. As to conditions: A2780, 24 h.
Data set [15] deals with OVCAR-3. In words: Anticancer activity against human OVCAR-3 cells assessed as cell growth inhibition incubated for 24 hrs […] by MTT assay. It counts as functional, cell-based. As to conditions: OVCAR-3, 24 h.
Data set [16] has as its system SK-OV-3. The data set is described as follows: Anticancer activity against human SK-OV-3 cells assessed as cell growth inhibition incubated for 24 hrs […] by MTT assay. Format: functional, cell-based. Particulars: SK-OV-3, 24 h.
The nature of data set [17]: Anticancer activity against human HOSE cells assessed as cell growth inhibition incubated for 24 hrs […] by MTT assay. Format: functional, cell-based.
The test system of data set [18] is A2780. In words: Anticancer activity against human A2780 cells assessed as cell growth inhibition by LDH release assay. Format: functional, cell-based. (Release of lactate dehydrogenase indicates damage to the cell membrane.)
Data set [19] relates to OVCAR-3. The data set is described as follows: Anticancer activity against human OVCAR-3 cells assessed as cell growth inhibition by LDH release assay. It counts as functional, cell-based.
Data set [20] relates to SK-OV-3. The data set is described as follows: Anticancer activity against human SK-OV-3 cells assessed as cell growth inhibition by LDH release assay. It counts as functional, cell-based.
The nature of data set [21]: Anticancer activity against human HOSE cells assessed as cell growth inhibition by LDH release assay. Format: functional, cell-based.
Data set [22] is described as follows: Anticancer activity against human Peritoneal mesothelial cells assessed as cell growth inhibition incubated for 24 hrs […] by MTT assay. It counts as functional, cell-based.
Data set [23] in a line: Anticancer activity against human Peritoneal mesothelial cells assessed as cell growth inhibition by LDH release assay. Format: functional, cell-based.
In data set [24] the test system is HepG2. In words: Anticancer activity against human HepG2 cells assessed as cell growth inhibition incubated for 3 days by MTT assay. Format: functional, cell-based. Particulars: HepG2, 72 h.
For data set [25], the system named is MDA-MB-231. In words: Anticancer activity against human MDA-MB-231 cells assessed as cell growth inhibition incubated for 48 hrs by SRB assay. Format: functional, cell-based. As to conditions: MDA-MB-231, 48 h.
For data set [26], the system named is PANC-1. The data set is described as follows: Anticancer activity against human PANC-1 cells assessed as cell growth inhibition incubated for 48 hrs by SRB assay. It counts as functional.
In another data set the test system is U-251. In words: Anticancer activity against human U-251MG cells assessed as cell growth inhibition by CyQuant assay. Format: functional, cell-based.
The test system of data set [27] is MDA-MB-231. In words: Anticancer activity against human MDA-MB-231 cells assessed as cell growth inhibition by CyQuant assay. Format: functional, cell-based.
The subject of data set [28] is MCF7. The data set is described as follows: Anticancer activity against human MCF7 cells assessed as cell growth inhibition by CyQuant assay. Format: functional, cell-based.
In data set [29] the test system is PANC-1. In words: Anticancer activity against human PANC-1 cells assessed as cell growth inhibition by CyQuant assay. Format: functional, cell-based.
Data set [30] in a line: Cytotoxicity against mouse NIH3T3 cells assessed as cell growth inhibition by CyQuant assay. Format: toxicity, cell-based.

Each structure is given as a SMILES string.

The term GI50 denotes the concentration giving 50% growth inhibition. Broadly, the IC50 is the concentration that gives 50% inhibition.

Description for Caco-2: Anti cancer activity against human Caco-2 cell assessed as cell growth inhibition incubated for 48 hrs by Brdu assay
Description for HT-29: Anti cancer activity against human HT-29 cell assessed as cell growth inhibition incubated for 48 hrs by Brdu assay

For the compound `COc1ccc(/C(C#N)=C/c2ccc3ccccc3c2)cc1OC`, the GI50 with MDA-MB-435, with UACC-62 and in the data set with SF-295 was 0.025 µM throughout. Besides, in the data set on MV4-11, the CC50 amounted to 0.45 µM.

Turning to `COc1cc(OC)cc(-n2cnc(-c3ccc(O)cc3)c2)c1`, in the data set on SK-OV-3 [1], the IC50 stood at 18.2 µM.

On to `COc1cc(/C=C/C(=O)CC(=O)/C=C/c2ccc(O)c(OC)c2)ccc1O` [CURCUMIN], for which the IC50 in the data set with MCF7 [2] turned out to be 68.2 µM; with MCF7 [4], 61.7 µM. The half-maximal inhibitory concentration (IC50) at 48 h was 133 µM in data set [3] and 83.1 µM in data set [5]. The selectivity ratio in the data set “in vitro [6]” stood at 1.93; in “in vitro [7]”, 1.35.

Consider `COc1ccc(/C=C\c2cc(OC)cc(OC)c2)cc1` [8Z-3,4',5-TRIMETHOXYSTILBENE], for which the IC50 came to 1 µM in the data set with B16-F10 [8], 0.115 µM in the data set with HT-29, 0.145 µM in the data set with Caco-2 and 0.473 µM in the data set with HepG2 [12]. The “inhibition (INH)” value in the data set with B16-F10 [9] was found to be 75%. Further, the viability at 10 µM with MCF7 [10] was 50%; in the data set with ZR-75-1 it was < 50%; with BT-549 it was 70%; in the data set with MDA-MB-157, 25%; with MDA-MB-231 [11], 10%.

Take `COc1ccc(/C=C(\C#N)c2cc(OC)c(OC)c(OC)c2)cc1O`: the concentration for 50% growth inhibition (GI50) in data set [13] was < 0.01 µM.

As for `Oc1ccc(/C=C/c2ccc(O)c(O)c2)cc1O`, the IC50 is 4 µM in the data set with A2780 [14]; 50 µM in the data set with OVCAR-3 [15]; 8 µM in the data set on SK-OV-3 [16]; 502 µM in data set [17]; 6 µM in the data set with A2780 [18]; 85 µM in the data set with OVCAR-3 [19]. Besides, the IC50 was 10 µM with SK-OV-3 [20], 532 µM in [21], 496 µM in data set [22] and 498 µM in data set [23].

`CCOc1cc(/C=C/c2ccc(O)c(O)c2)cc(OCC)c1`: in the data set on HepG2 [24], the IC50 worked out at 67.2 µM.

Consider `COc1cc(/C=C/c2ccc(OC(=O)CSc3nnc(-c4cccc(C(F)(F)F)c4)o3)cc2)cc(OC)c1`, for which the IC50 in the data set on MDA-MB-231 [25] was found to be 0.072 µM. Moreover, the GI50 in the data set with PANC-1 [26] (48 h) turned out to be 0.094 µM; with PANC-1 [26] (Homo sapiens, PANC-1, 48 h), 0.064 µM.

For `COc1ccc(/C=C\c2cc(OC)c(OC)c(OC)c2)cc1O` [COMBRETASTATIN A4], the GI50 in data set [13] is < 0.01 µM.

As to `COc1cc(/C=C/c2ccc(OC(C)=O)cc2)cc(OC)c1`, the IC50 in the data set on U-251 was 6.7 µM; in the data set with MDA-MB-231 [27], 18.5 µM; in the data set on MCF7 [28] it was 10.8 µM; in the data set with PANC-1 [29], 18.1 µM; in [30] it was > 20 µM.

The record behind these values is ChEMBL document CHEMBL5233248, “Resveratrol - A comprehensive review of recent advances in anticancer drug design and development” (Eur J Med Chem, 2020).
